Values quoted from earlier work in patent publication US20110189689A1, “RIBOSWITCHES” (priority 2008, published 2011).

Experiments:
[1] = system: TPP-specific riboswitches in bacteria and plants; details: via interaction with TPP-specific riboswitches in bacteria and plants
[2] = system: E. col±165 thiM RNA riboswitch; details: non-phosphorylated form of the thiamine analog
S. cerevisiae = details: presumably by binding to enzymes

SMILES	antibiotic effect [1]	affinity to the thiM RNA riboswitch [2]	growth rate of S. cerevisiae (S. cerevisiae)
Cc1ncc(C[n+]2cccc(CCOP(=O)(O)OP(=O)(O)O)c2C)c(N)n1 [PTPP, pyrithiamine pyrophosphate]	exert an antibiotic effect	–	–
Cc1ncc(C[n+]2csc(CCO)c2C)c(=O)[nH]1 [oxythiamine]	–	strongly reduced affinity	can reduce the growth rate
